Values of other authors, collected in patent US10092615B2, “Nutritional supplements for improving male fertility” (Fairhaven Health, LLC, priority 2016, dated 2018).

How the values were obtained:
[1] = test system: sperm samples from 22 asthenospermic men; conditions: 50 μM, in vitro incubation
[2] = test system: infertile patients; conditions: given for a mean 103 days
[3] = test system: patients affected by male infertility; conditions: compared to placebo; for forward sperm motility (WMD): 95% CI (0.49, 23.16); for forward sperm motility (WMD) / total sperm motility (WMD): p=0.04; for total sperm motility (WMD): 95% CI (1.72, 13.14); for pregnancy rate (OR): 95% CI (2.08, 8.08), p<0.0001; for semen volume (WMD): 95% CI (−0.02, 0.58), p=0.07; for semen volume (WMD) / sperm concentration (WMD): without significant difference; for sperm concentration (WMD): 95% CI (−4.47, 15.84), p=0.27; for atypical sperm cell (WMD): 95% CI (−7.89, −3.56), p<0.00001

Structure (SMILES) | sperm motility [1] | standard sperm parameters [2] | fertilization rate ([2]; p<0.05) | forward sperm motility (WMD) [3] | total sperm motility (WMD) [3] | pregnancy rate (OR) [3] | semen volume (WMD) [3] | sperm concentration (WMD) [3] | atypical sperm cell (WMD) [3]
COC1=C(OC)C(=O)C(C/C=C(\C)CC/C=C(\C)CC/C=C(\C)CC/C=C(\C)CC/C=C(\C)CC/C=C(\C)CC/C=C(\C)CC/C=C(\C)CC/C=C(\C)CCC=C(C)C)=C(C)C1=O [Coenzyme Q10] | significant increases in motility | no significant changes | significant improvement | – | – | – | – | – | –
C[N+](C)(C)C[C@H](O)CC(=O)[O-] [L-carnitine] | – | – | – | 11.83 | 7.43 | 4.10 | 0.28 | 5.69 | −5.72
CC(=O)O[C@H](CC(=O)[O-])C[N+](C)(C)C [acetyl-L-carnitine] | – | – | – | 11.83 | 7.43 | 4.10 | 0.28 | 5.69 | −5.72
